One molecule from publication PMC6014988, “Precision therapeutic targeting of human cancer cell motility” (Nature Communications, 2018) can be followed below.

Series [1] is described as follows: Pharmacokinetics in CD1 mice, oral gavage and iv. It counts as in vivo, mouse. Here is the method: For determination of pharmacokinetic (PK) parameters, KBU2046 was administered by either intravenous injection or oral gavage to groups of N = 3 CD1(ICR) mice at 0 (i.e., vehicle only), 25, or 100 mg/kg. Blood was collected into EDTA by terminal cardiac puncture before drug administration (i.e., baseline) and at 5, 10, 15, 30, 45, 60, 90, 120, 180, 240, 360, 480, 960, 1440 min after administration. In separate experiments, as described above, Balb/c athymic mice were dosed with KBU2046 incorporated into chow for 35 days, after which blood was collected by terminal cardiac puncture. Resultant plasma (~250 μl/mouse) was stored at −80 °C.
Plasma KBU2046 concentrations were measured in duplicate by liquid chromatography-tandem mass spectrometry after sample preparation by solid-phase extraction. Specifically, 0.1 mL of a sample, 10 μL of 0.1 μg/mL internal standard solution (3-(2-chlorophenyl)-(4H-1-benzopyran-4-one, a chloride analog of KBU2046), 3800 μL of water, and 10 μl of 85% phosphoric acid were added, vortexed, and stored at 4 °C for 2 h. After washing a 96-well Strata-X 33 µm polymeric reversed phase 30 mg/well solid-phase extraction plate (Phenomenex) with methanol and water, sample was applied, washed with 20% methanol in water, eluted with 70% acetonitrile/30% methanol, dried at 50 °C under N2, reconstituted with 100 μL of mobile phase, and 20 µL was analyzed on an API 3000 liquid chromatography-tandem mass spectrometry system (Applied Biosystems) with an Agilent 1100 series HPLC system (Agilent Technologies). Samples were eluted isocratically from a Synergi 4-μm MAX-RP 100 Å column (2.0 × 50 mm; Phenomenex) by a mobile phase consisting of 10 mM ammonium formate in water and methanol (30:70 [vol/vol]) at a flow rate of 0.20 mL/min. The tandem mass spectrometer was operated with its electrospray source in the positive ionization mode. The mass-to-charge ratios of the precursor-to-product ion reactions monitored were 243.5 → 125.1 for KBU2046 and 257.0 → 165.0 for the internal standard. The retention time of KBU2046 was ~2.7 min while that of the internal standard was ~2.3 min. The linear range for plasma KBU2046 standard curves was 0.1–25.0 ng/mL, with coefficients of variation of 10% or less throughout the entire concentration range. Fresh plasma standard curves were prepared in blank plasma and run on the day of analysis of plasma samples.
Plasma KBU2046 concentration vs. time relationships after both intravenous and oral drug administration were modeled simultaneously using the SAAM II software system (SAAM Institute), implemented on a WindowsTM-based PC (see PK modeling schema). Plasma concentrations were modeled with a three-compartment PK model using a naive pooled data approach. Oral drug absorption was characterized by a tanks-in-series delay element, to account for the non-instantaneous appearance of drug in the body. Simultaneous estimation of PK model parameters for both routes of administration permitted estimation of the bioavailability of the orally administered drug (F)[41]. The SAAM II objective function used was the extended least-squares maximum likelihood function using data weighted with the inverse of the model-based variance of the data at the observation times. Model misspecification was sought by visual inspection of the measured and predicted marker concentrations vs. time relationships (Fig. 7)[42].

The nature of series [2]: Systemic off-target effects, histologic examination after 35 days. It is filed as in vivo. On the procedure: Histologic examination of tissue: Organs of athymic male mice stained with hematoxylin and eosin, trichrome, or giemsa were microscopically examined by a mouse pathologist (L.L.) in a blinded fashion, and toxicity scored using an established semi-quantitative histological scoring system[38] (Supplementary Fig. 8). The following clinical chemistry parameters were measured in blood of CD1 male and female mice by Charles River Research Animal Diagnostic Services: cholesterol, triglycerides, alanine aminotransferase, aspartate aminotransferase, total bilirubin, glucose, phosphorus, total protein, calcium, blood urea nitrogen (BUN), creatinine, albumin, Na, K, Cl, white blood cells (with differential), red blood cells, hemoglobin, and platelets.
Supplementary Figure 7. KBU2046 treatment is not associated with systemic off-target effects. For histologic examination of tissue, cohorts of N=5 male 6-8 week old Balb/c athymic […]
KBU2046 as described in manuscript Figure 2a. […] Organs were examined for damage using a semi-quantitative histological scoring system, as described 4. […]

In a further series the test system is NCI-60 cell line panel. As to the kind of experiment: NCI 60 cell line panel screening. It is filed as cell-based, human. The note with it: initial screening per DTP protocol. Here is the method: panel. KBU2046 was submitted to the Developmental Therapeutics Program (DTP) of the US National Cancer Institute (NCI), underwent initial screening across the NCI 60 cell line panel per DTP protocol 1, and the resultant COMPARE diagram is depicted above. Based upon its lack of […]
Supplementary Figure 3. […] Estrogen […]
receptor positive MCF-7 cells were cultured under hormone free conditions transfected pERE-Luc or empty control vector, along with constitutive active β-gal, grown under estrogen-free conditions, and pre-treated for 24 hours with nanomolar concentrations of estradiol, or with micromolar concentrations of genistein or KBU2046, as indicated. Luciferase activity was measured, normalized to that of β-gal, and values expressed as the percent of untreated vector control cells. Values are the mean±SD of a single experiment, with similar results seen in a separate repeat experiment, both in replicates of N=2.
(also on this page, place not known: luciferase/B-gal activity, % untreated vector control)
(1 picture or pasted object on this page, not shown here)

Where [3] appears, read: combined fit of both doses by both routes.

Where two headings read alike, the source gives them in different places.

For `O=C1c2ccccc2OCC1c1ccc(F)cc1` (racemic) [KBU2046, (±)-3(4-fluorophenyl)chroman-4-one], the clearance in series [1] (CD1(ICR), mouse, plasma, combined fit of both doses by both routes, read-out: Clearance, Elimination CLE) turned out to be 1.53 mL/min. Also, in series [1] (CD1(ICR), mouse, plasma, combined fit of both doses by both routes, read-out: Clearance, Fast CLF), the clearance turned out to be 0.61 mL/min. Further, the clearance in series [1] (CD1(ICR), mouse, plasma, combined fit of both doses by both routes, read-out: Clearance, Slow CLS) turned out to be 0.11 mL/min. Besides, the Vd in series [1] (CD1(ICR), mouse, plasma, combined fit of both doses by both routes, read-out: Distribution volume, Total VSS) worked out at 0.0636 L. Besides, the half-life in series [1] (CD1(ICR), mouse, plasma, combined fit of both doses by both routes, read-out: Elim Half-life (converted)) is 2.27 h. For the same molecule, in series [1] (CD1(ICR), mouse, plasma, 25 mg/kg by oral gavage), the bioavailability is 4.6%. Moreover, the bioavailability in series [1] (CD1(ICR), mouse, plasma, 100 mg/kg by oral gavage) was 10.1%. Also, in series [1] (setting [3]), the Absorption delay is 32.3 min; the “Distribution volume, Central VC” value was 19.3 mL; the “Distribution volume, Fast VF” value is recorded as 20.4 mL; the “Distribution volume, Slow VS” value came to 23.9 mL. Further, in series [1] (single oral dose), the “time plasma concentrations maintained >24 nM” value worked out at 9.3 h. Also, in series [2] (athymic mice, KBU2046 in chow, 35 days), the “organ damage, histological scoring” value is recorded as “No organ damage was observed”. Moreover, the “toxicity after oral dosing” value in series [2] (oral doses up to 150 mg/kg, up to 35 days) is recorded as “no observed toxicity”. In addition, the “toxicity to NCI-60 cells” value in the series with NCI-60 cell line panel is “not toxic”.
